# Measured values published in patent publication US11590116B2 (THERAVANCE BIOPHARMA R&D IP, LLC, priority 2019, dated 2023).
# Tests used:
# [1] = system: TGF-β-stimulated SMAD3 phosphorylation in BEAS-2B cells; assay: Cellular ALK5 potency assay, inhibition of TGF-β stimulated pSMAD3 formation in BEAS-2B cells; assay type: cell-based; conditions: Homo sapiens; inhibition of TGF-β stimulated pSMAD3 formation, BEAS-2B cells; read-out: BEAS2B pIC50 (converted)
# How it was run: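 SMAD3 phosphorylation was measured by AlphaLISA after 30 min TGF-β stimulation (10 ng/mL final) of BEAS-2B cells preincubated 1 h with compound at 37 °C. Results given as pIC50.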
# [2] = molecular target: T1, recombinant human ALK5 (TGF-βR1) protein (Homo sapiens, UniProt P36897); assay: Biochemical ALK5 (TGF-βR1) assay to measure pKi (LANCE Ultra ULight kinase assay); conditions: apparent pKi from pIC50 by Cheng-Prusoff, read-out: ALK5 pKi (converted)
# T1 construct: purchased Life Technologies PR9075A
# T1 sequence (P36897 34-503): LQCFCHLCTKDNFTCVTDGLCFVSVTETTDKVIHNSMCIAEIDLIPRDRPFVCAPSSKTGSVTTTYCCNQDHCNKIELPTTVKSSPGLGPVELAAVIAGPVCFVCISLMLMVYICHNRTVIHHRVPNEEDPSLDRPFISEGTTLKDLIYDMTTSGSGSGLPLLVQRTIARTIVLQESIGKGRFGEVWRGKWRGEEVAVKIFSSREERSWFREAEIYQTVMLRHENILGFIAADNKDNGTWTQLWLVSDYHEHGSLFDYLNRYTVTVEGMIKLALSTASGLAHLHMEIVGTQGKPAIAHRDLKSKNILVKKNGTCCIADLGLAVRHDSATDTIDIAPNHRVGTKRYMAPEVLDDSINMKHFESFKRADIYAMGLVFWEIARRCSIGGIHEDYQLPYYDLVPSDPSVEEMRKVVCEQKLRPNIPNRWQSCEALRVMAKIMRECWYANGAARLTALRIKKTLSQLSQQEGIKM
# How it was run: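 Dose range 10 μM–25 pM; enzyme + compound 60 min RT; ATP added (5× stock 125 μM, 2 mM DTT); 60 min 37 °C; stop with EDTA + Eu anti-phospho-Topo IIα Thr1342 Ab; TR-FRET ex 320/340, em 665 nm. 4-param pIC50 → pKi (Cheng-Prusoff).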
smiles,measurement,setting,value
"FC(F)(F)c1cccc(-c2n[nH]cc2-c2ccc3ncc(N4CCCNCC4)cc3n2)n1 [Compound 383, 7-(1,4-diazepan-1-yl)-2-[3-[6-(trifluoromethyl)-2-pyridyl]-1H-pyrazol-4-yl]-1,5-naphthyridine]",IC50,[1],200 to 1260 nM
same,Ki,[2],0.398 to 3.16 nM
"CNC(=O)[C@@H]1CN(c2cnc3ccc(-c4nc[nH]c4-c4cccc(C)n4)cc3c2)CCN1 [Compound 384, (2S)-N-methyl-4-[6-[5-(6-methyl-2-pyridyl)-1H-imidazol-4-yl]-3-quinolyl]piperazine-2-carboxamide]",IC50,[1],200 to 1260 nM
same,Ki,[2],0.0398 to 0.316 nM
"Cc1cccc(-c2n[nH]cc2-c2ccc3ncc(CCC(=O)N4CCOCC4)cc3n2)n1 [Compound 385, 3-[6-[3-(6-methyl-2-pyridyl)-1H-pyrazol-4-yl]-1,5-naphthyridin-3-yl]-1-morpholino-propan-1-one]",IC50,[1],25.1 to 158 nM
same,Ki,[2],0.398 to 3.16 nM
"Cc1cccc(-c2n[nH]cc2-c2ccc3ncc(-c4cnn(C5CNC5)c4)cc3n2)n1 [Compound 386, 7-[1-(azetidin-3-yl)pyrazol-4-yl]-2-[3-(6-methyl-2-pyridyl)-1H-pyrazol-4-yl]-1,5-naphthyridine]",IC50,[1],25.1 to 158 nM
same,Ki,[2],< 0.0316 nM
"Cc1cccc(-c2[nH]cnc2-c2ccc3ncc(N4CCC5(CCNC5)C4)cc3c2)n1 (stereo not drawn) [Compound 387, 3-(2,7-diazaspiro[4.4]nonan-2-yl)-6-[5-(6-methyl-2-pyridyl)-1H-imidazol-4-yl]quinoline]",IC50,[1],25.1 to 158 nM
same,Ki,[2],< 0.0316 nM
"Cc1cccc(-c2[nH]cnc2-c2ccc3ncc(N4CCC(NC(=O)[C@@H]5CCCN5)CC4)cc3c2)n1 [Compound 388, (2S)-N-[1-[6-[5-(6-methyl-2-pyridyl)-1H-imidazol-4-yl]-3-quinolyl]-4-piperidyl]pyrrolidine-2-carboxamide]",IC50,[1],200 to 1260 nM
same,Ki,[2],0.0398 to 0.316 nM
"Cc1cccc(-c2[nH]ncc2-c2ccc3ncc(C(=O)OCCN4CCN(C(C)C)CC4)cc3n2)n1 [Compound 389, 2-(4-isopropylpiperazin-1-yl)ethyl 6-[5-(6-methyl-2-pyridyl)-1H-pyrazol-4-yl]-1,5-naphthyridine-3-carboxylate]",IC50,[1],25.1 to 158 nM
same,Ki,[2],0.0398 to 0.316 nM
"CCN1CCN(c2cnc3ccc(-c4c[nH]nc4-c4cccc(C)n4)nc3c2)CC1 [Compound 390, 7-(4-ethylpiperazin-1-yl)-2-[3-(6-methyl-2-pyridyl)-1H-pyrazol-4-yl]-1,5-naphthyridine]",IC50,[1],25.1 to 158 nM
same,Ki,[2],0.0398 to 0.316 nM
"Cc1nc(-c2n[nH]cc2-c2ccc3ncc(-c4cc5n(n4)CCNC5)cc3n2)ccc1F [Compound 391, 2-[3-(5-fluoro-6-methyl-2-pyridyl)-1H-pyrazol-4-yl]-7-(4,5,6,7-tetrahydropyrazolo[1,5-a]pyrazin-2-yl)-1,5-naphthyridine]",IC50,[1],< 20 nM
same,Ki,[2],< 0.0316 nM
"Cc1cccc(-c2[nH]cnc2-c2ccc3ncc(C4=CCC5(CCNCC5)CC4)cc3c2)n1 [Compound 392, 9-(6-(5-(6-methylpyridin-2-yl)-1H-imidazol-4-yl)quinolin-3-yl)-3-azaspiro[5.5]undec-8-ene]",IC50,[1],25.1 to 158 nM
same,Ki,[2],0.0398 to 0.316 nM
"Cc1cccc(-c2n[nH]cc2-c2ccc3ncc(-c4[nH]nc5c4CCN5)cc3n2)n1 [Compound 393, 2-[3-(6-methyl-2-pyridyl)-1H-pyrazol-4-yl]-7-(2,4,5,6-tetrahydropyrrolo[2,3-c]pyrazol-3-yl)-1,5-naphthyridine]",IC50,[1],25.1 to 158 nM
same,Ki,[2],< 0.0316 nM
"COc1[nH]nc(-c2cccc(C)n2)c1-c1ccc2ncc(NCCN3CCN(C(C)C)CC3)cc2n1 [Compound 394, N-[2-(4-isopropylpiperazin-1-yl)ethyl]-6-[5-methoxy-3-(6-methyl-2-pyridyl)-1H-pyrazol-4-yl]-1,5-naphthyridin-3-amine]",IC50,[1],200 to 1260 nM
same,Ki,[2],0.0398 to 0.316 nM
"Cc1cccc(-c2[nH]cnc2-c2ccc3ncc(-c4cncc(C(=O)O[C@@H]5CCN(C)C5)c4)cc3c2)n1 [Compound 396, [(3R)-1-methylpyrrolidin-3-yl] 5-[6-[5-(6-methyl-2-pyridyl)-1H-imidazol-4-yl]-3-quinolyl]pyridine-3-carboxylate]",IC50,[1],25.1 to 158 nM
same,Ki,[2],0.0398 to 0.316 nM
"Cc1cccc(-c2[nH]cnc2-c2ccc3ncc(-c4cccc(N5CC(N)C5)c4)cc3c2)n1 [Compound 397, 1-[3-[6-[5-(6-methyl-2-pyridyl)-1H-imidazol-4-yl]-3-quinolyl]phenyl]azetidin-3-amine]",IC50,[1],25.1 to 158 nM
same,Ki,[2],< 0.0316 nM
"Cc1cccc(-c2n[nH]cc2-c2ccc3ncc(-c4ccccc4)cc3n2)n1 [Compound 398, 2-[3-(6-methyl-2-pyridyl)-1H-pyrazol-4-yl]-7-phenyl-1,5-naphthyridine]",IC50,[1],< 20 nM
same,Ki,[2],< 0.0316 nM
"Cc1cccc(-c2nnn(C)c2-c2ccc3ncc(-c4cn[nH]c4)cc3c2)n1 [Compound 399, 6-[3-methyl-5-(6-methyl-2-pyridyl)triazol-4-yl]-3-(1H-pyrazol-4-yl)quinoline]",IC50,[1],< 20 nM
same,Ki,[2],< 0.0316 nM
"Cc1cccc(-c2n[nH]cc2-c2ccc3ncc(N4CCCN(C5CCCC5)CC4)cc3n2)n1 [Compound 400, 7-(4-cyclopentyl-1,4-diazepan-1-yl)-2-[3-(6-methyl-2-pyridyl)-1H-pyrazol-4-yl]-1,5-naphthyridine]",IC50,[1],200 to 1260 nM
same,Ki,[2],0.0398 to 0.316 nM
"CNCCn1cc(-c2cnc3ccc(-c4nc[nH]c4-c4ccc(F)c(C)n4)cc3c2)cn1 [Compound 401, 2-[4-[6-[5-(5-fluoro-6-methyl-2-pyridyl)-1H-imidazol-4-yl]-3-quinolyl]pyrazol-1-yl]-N-methyl-ethanamine]",IC50,[1],25.1 to 158 nM
same,Ki,[2],< 0.0316 nM
"Cc1cccc(-c2nn3c(c2-c2ccc4ncc(-c5cn[nH]c5)cc4c2)CNCC3)n1 [Compound 402, 6-[2-(6-methyl-2-pyridyl)-4,5,6,7-tetrahydropyrazolo[1,5-a]pyrazin-3-yl]-3-(1H-pyrazol-4-yl)quinoline]",IC50,[1],25.1 to 158 nM
same,Ki,[2],0.0398 to 0.316 nM
"Cc1cccc(-c2n[nH]cc2-c2ccc3ncc(N4CCC(N(C)CC(C)C)CC4)cc3n2)n1 [Compound 403, N-isobutyl-N-methyl-1-[6-[3-(6-methyl-2-pyridyl)-1H-pyrazol-4-yl]-1,5-naphthyridin-3-yl]piperidin-4-amine]",IC50,[1],25.1 to 158 nM
same,Ki,[2],0.0398 to 0.316 nM
"Cc1cccc(-c2[nH]cnc2-c2ccc3ncc(NCCN4CCC5(CC4)CNC5)cc3c2)n1 [Compound 404, N-[2-(2,7-diazaspiro[3.5]nonan-7-yl)ethyl]-6-[5-(6-methyl-2-pyridyl)-1H-imidazol-4-yl]quinolin-3-amine]",IC50,[1],200 to 1260 nM
same,Ki,[2],0.0398 to 0.316 nM
"Cc1cccc(-c2[nH]cnc2-c2ccc3ncc(-c4cnn(C5CCCNC5)c4)cc3c2)n1 (stereo not drawn) [Compound 405, 6-[5-(6-methyl-2-pyridyl)-1H-imidazol-4-yl]-3-[1-(3-piperidyl)pyrazol-4-yl]quinoline]",IC50,[1],25.1 to 158 nM
same,Ki,[2],< 0.0316 nM
"Cc1cccc(-c2[nH]cnc2-c2ccc3ncc(NC(=O)C4CN5CCN4CC5)cc3c2)n1 (stereo not drawn) [Compound 406, N-[6-[5-(6-methyl-2-pyridyl)-1H-imidazol-4-yl]-3-quinolyl]-1,4-diazabicyclo[2.2.2]octane-2-carboxamide]",IC50,[1],200 to 1260 nM
same,Ki,[2],0.0398 to 0.316 nM
"CNCCn1cc(-c2cnc3ccc(-c4nc[nH]c4-c4cccc(C)n4)nc3c2)cn1 [Compound 408, N-methyl-2-[4-[6-[5-(6-methyl-2-pyridyl)-1H-imidazol-4-yl]-1,5-naphthyridin-3-yl]pyrazol-1-yl]ethanamine]",IC50,[1],25.1 to 158 nM
same,Ki,[2],0.0398 to 0.316 nM
